# Experiments:
# Assay in all cases: relative viability (nuclei count vs DMSO), 5 days (fraction); higher = more cells survive
# EKVX = test system: EKVX
# Outline: (§1)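 Relative viability is defined as nuclei in treated wells over nuclei in vehicle wells. Duplicate plates were run and medians reported. Lung cancer cell lines in 1536-well plates were dosed by pin tool one day after seeding, with one drug or with a fixed anchor-drug dose plus five library-drug doses (not always all listed) in √10 steps, and nuclei were counted after 5 days.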
# EMC-BAC-2 = test system: EMC-BAC-2
# Outline: as §1
# PC-14 = test system: PC-14
# Outline: as §1
# COR-L 105 = test system: COR-L 105
# Outline: as §1
# A-427 = test system: A-427
# Outline: as §1
# BEN = test system: BEN
# Outline: as §1
# SK-MES-1 = test system: SK-MES-1
# Outline: as §1
# HOP-62 = test system: HOP-62
# Outline: as §1
# NCI-H661 = test system: NCI-H661
# Outline: as §1
# NCI-H1915 = test system: NCI-H1915
# Outline: as §1
# 201T = test system: 201T
# Outline: as §1
# HCC-78 = test system: HCC-78
# Outline: as §1
# NCI-H1993 = test system: NCI-H1993
# Outline: as §1
# NCI-H647 = test system: NCI-H647
# Outline: as §1
# NCI-H460 = test system: NCI-H460
# Outline: as §1
# NCI-H1563 = test system: NCI-H1563
# Outline: as §1
# LK-2 = test system: LK-2
# Outline: as §1
# COR-L23 = test system: COR-L23
# Outline: as §1
# NCI-H2405 = test system: NCI-H2405
# Outline: as §1
# HCC-366 = test system: HCC-366
# Outline: as §1
# HCC-15 = test system: HCC-15
# Outline: as §1
# NCI-H1734 = test system: NCI-H1734
# Outline: as §1
smiles,measurement,setting,value
Cc1cn(-c2cc(NC(=O)c3ccc(C)c(Nc4nccc(-c5cccnc5)n4)c3)cc(C(F)(F)F)c2)cn1 [Nilotinib] + COc1cc2c(Oc3ccc(NC(=O)C4(C(=O)Nc5ccc(F)cc5)CC4)cc3F)ccnc2cc1OCCCN1CCOCC1 [Foretinib] (partner 0.25 µM),relative viability,EKVX; first compound 0.001 µM,0.726
same,relative viability,EKVX; first compound 0.003162 µM,1
same,relative viability,EKVX; first compound 0.01 µM,1.43
same,relative viability,EKVX; first compound 0.03162 µM,0.512
same,relative viability,EKVX; first compound 0.1 µM,0.187
same,relative viability,EMC-BAC-2; first compound 0.001 µM,0.963
same,relative viability,EMC-BAC-2; first compound 0.003162 µM,1.14
same,relative viability,EMC-BAC-2; first compound 0.01 µM,1.13
same,relative viability,EMC-BAC-2; first compound 0.03162 µM,0.922
same,relative viability,EMC-BAC-2; first compound 0.1 µM,1.02
same,relative viability,PC-14; first compound 0.001 µM,0.974
same,relative viability,PC-14; first compound 0.003162 µM,1.11
same,relative viability,PC-14; first compound 0.01 µM,1.07
same,relative viability,PC-14; first compound 0.03162 µM,0.845
same,relative viability,PC-14; first compound 0.1 µM,0.928
same,relative viability,COR-L 105; first compound 0.001 µM,1.08
same,relative viability,COR-L 105; first compound 0.01 µM,1.45
same,relative viability,COR-L 105; first compound 0.03162 µM,0.99
same,relative viability,COR-L 105; first compound 0.1 µM,0.99
same,relative viability,A-427; first compound 0.001 µM,0.945
same,relative viability,A-427; first compound 0.003162 µM,1.09
same,relative viability,A-427; first compound 0.01 µM,1.03
same,relative viability,A-427; first compound 0.03162 µM,0.792
same,relative viability,A-427; first compound 0.1 µM,0.476
same,relative viability,BEN; first compound 0.001 µM,0.829
same,relative viability,BEN; first compound 0.003162 µM,0.674
same,relative viability,BEN; first compound 0.01 µM,0.494
same,relative viability,BEN; first compound 0.03162 µM,0.647
same,relative viability,BEN; first compound 0.1 µM,0.285
same,relative viability,SK-MES-1; first compound 0.003162 µM,1.13
same,relative viability,SK-MES-1; first compound 0.01 µM,1.23
same,relative viability,SK-MES-1; first compound 0.03162 µM,0.904
same,relative viability,SK-MES-1; first compound 0.1 µM,0.963
same,relative viability,HOP-62; first compound 0.001 µM,0.802
same,relative viability,HOP-62; first compound 0.003162 µM,1.16
same,relative viability,HOP-62; first compound 0.01 µM,1.27
same,relative viability,HOP-62; first compound 0.03162 µM,0.831
same,relative viability,HOP-62; first compound 0.1 µM,0.771
same,relative viability,NCI-H661; first compound 0.001 µM,1.03
same,relative viability,NCI-H661; first compound 0.003162 µM,1.18
same,relative viability,NCI-H661; first compound 0.03162 µM,0.919
same,relative viability,NCI-H661; first compound 0.1 µM,0.9
same,relative viability,NCI-H1915; first compound 0.001 µM,0.966
same,relative viability,NCI-H1915; first compound 0.003162 µM,1.21
same,relative viability,NCI-H1915; first compound 0.01 µM,1.2
same,relative viability,NCI-H1915; first compound 0.03162 µM,0.983
same,relative viability,NCI-H1915; first compound 0.1 µM,0.952
same,relative viability,201T; first compound 0.001 µM,0.9
same,relative viability,201T; first compound 0.003162 µM,1.09
same,relative viability,201T; first compound 0.01 µM,1.32
same,relative viability,201T; first compound 0.03162 µM,1.01
same,relative viability,201T; first compound 0.1 µM,1.14
same,relative viability,HCC-78; first compound 0.001 µM,0.636
same,relative viability,HCC-78; first compound 0.003162 µM,0.65
same,relative viability,HCC-78; first compound 0.01 µM,0.719
same,relative viability,HCC-78; first compound 0.03162 µM,0.577
same,relative viability,HCC-78; first compound 0.1 µM,0.59
same,relative viability,NCI-H1993; first compound 0.001 µM,0.823
same,relative viability,NCI-H1993; first compound 0.003162 µM,0.871
same,relative viability,NCI-H1993; first compound 0.01 µM,0.989
same,relative viability,NCI-H1993; first compound 0.03162 µM,0.742
same,relative viability,NCI-H1993; first compound 0.1 µM,0.839
same,relative viability,NCI-H647; first compound 0.001 µM,1.09
same,relative viability,NCI-H647; first compound 0.003162 µM,1.16
same,relative viability,NCI-H647; first compound 0.01 µM,1.34
same,relative viability,NCI-H647; first compound 0.03162 µM,0.879
same,relative viability,NCI-H647; first compound 0.1 µM,0.86
same,relative viability,NCI-H460; first compound 0.001 µM,0.903
same,relative viability,NCI-H460; first compound 0.003162 µM,1.31
same,relative viability,NCI-H460; first compound 0.01 µM,1.17
same,relative viability,NCI-H460; first compound 0.03162 µM,0.66
same,relative viability,NCI-H460; first compound 0.1 µM,0.941
same,relative viability,NCI-H1563; first compound 0.001 µM,0.933
same,relative viability,NCI-H1563; first compound 0.003162 µM,0.896
same,relative viability,NCI-H1563; first compound 0.01 µM,0.875
same,relative viability,NCI-H1563; first compound 0.03162 µM,0.852
same,relative viability,NCI-H1563; first compound 0.1 µM,0.891
same,relative viability,LK-2; first compound 0.001 µM,1.02
same,relative viability,LK-2; first compound 0.003162 µM,1.53
same,relative viability,LK-2; first compound 0.01 µM,1.1
same,relative viability,LK-2; first compound 0.03162 µM,0.905
same,relative viability,LK-2; first compound 0.1 µM,0.711
same,relative viability,COR-L23; first compound 0.001 µM,0.853
same,relative viability,COR-L23; first compound 0.003162 µM,1.28
same,relative viability,COR-L23; first compound 0.01 µM,1.13
same,relative viability,COR-L23; first compound 0.03162 µM,0.821
same,relative viability,COR-L23; first compound 0.1 µM,0.924
same,relative viability,NCI-H2405; first compound 0.001 µM,1.05
same,relative viability,NCI-H2405; first compound 0.003162 µM,1.05
same,relative viability,NCI-H2405; first compound 0.01 µM,1.03
same,relative viability,NCI-H2405; first compound 0.03162 µM,0.956
same,relative viability,NCI-H2405; first compound 0.1 µM,0.98
same,relative viability,HCC-366; first compound 0.001 µM,0.959
same,relative viability,HCC-366; first compound 0.003162 µM,1.08
same,relative viability,HCC-366; first compound 0.01 µM,1.17
same,relative viability,HCC-366; first compound 0.03162 µM,0.916
same,relative viability,HCC-366; first compound 0.1 µM,0.953
same,relative viability,HCC-15; first compound 0.001 µM,0.975
same,relative viability,HCC-15; first compound 0.003162 µM,1.25
same,relative viability,HCC-15; first compound 0.01 µM,1.09
same,relative viability,HCC-15; first compound 0.03162 µM,0.858
same,relative viability,HCC-15; first compound 0.1 µM,0.754
same,relative viability,NCI-H1734; first compound 0.001 µM,0.771
same,relative viability,NCI-H1734; first compound 0.01 µM,0.895
same,relative viability,NCI-H1734; first compound 0.03162 µM,0.646
same,relative viability,NCI-H1734; first compound 0.1 µM,0.628
